Where two headings read alike, the source gives them in different places.
Experiments:
Assay in all cases: cell-based
hNav1.7 = hNav1.7 (Homo sapiens, UniProt Q15858); type: cell-based; conditions: PatchXpress, read-out: PX hNav1.7 Tonic IC50
hNav1.4 = hNav1.4 (Homo sapiens, UniProt P35499); conditions: for IC50: PatchXpress, read-out: PX hNav1.4 Tonic IC50
hNav1.5 = hNav1.5 (Homo sapiens, UniProt Q14524); conditions: for IC50: PatchXpress, read-out: PX hNav1.5 Tonic IC50
[1] = * = at high concentrations compound would wash off slowly or not at all

Chain of hNav1.5 (Q14524 whole entry): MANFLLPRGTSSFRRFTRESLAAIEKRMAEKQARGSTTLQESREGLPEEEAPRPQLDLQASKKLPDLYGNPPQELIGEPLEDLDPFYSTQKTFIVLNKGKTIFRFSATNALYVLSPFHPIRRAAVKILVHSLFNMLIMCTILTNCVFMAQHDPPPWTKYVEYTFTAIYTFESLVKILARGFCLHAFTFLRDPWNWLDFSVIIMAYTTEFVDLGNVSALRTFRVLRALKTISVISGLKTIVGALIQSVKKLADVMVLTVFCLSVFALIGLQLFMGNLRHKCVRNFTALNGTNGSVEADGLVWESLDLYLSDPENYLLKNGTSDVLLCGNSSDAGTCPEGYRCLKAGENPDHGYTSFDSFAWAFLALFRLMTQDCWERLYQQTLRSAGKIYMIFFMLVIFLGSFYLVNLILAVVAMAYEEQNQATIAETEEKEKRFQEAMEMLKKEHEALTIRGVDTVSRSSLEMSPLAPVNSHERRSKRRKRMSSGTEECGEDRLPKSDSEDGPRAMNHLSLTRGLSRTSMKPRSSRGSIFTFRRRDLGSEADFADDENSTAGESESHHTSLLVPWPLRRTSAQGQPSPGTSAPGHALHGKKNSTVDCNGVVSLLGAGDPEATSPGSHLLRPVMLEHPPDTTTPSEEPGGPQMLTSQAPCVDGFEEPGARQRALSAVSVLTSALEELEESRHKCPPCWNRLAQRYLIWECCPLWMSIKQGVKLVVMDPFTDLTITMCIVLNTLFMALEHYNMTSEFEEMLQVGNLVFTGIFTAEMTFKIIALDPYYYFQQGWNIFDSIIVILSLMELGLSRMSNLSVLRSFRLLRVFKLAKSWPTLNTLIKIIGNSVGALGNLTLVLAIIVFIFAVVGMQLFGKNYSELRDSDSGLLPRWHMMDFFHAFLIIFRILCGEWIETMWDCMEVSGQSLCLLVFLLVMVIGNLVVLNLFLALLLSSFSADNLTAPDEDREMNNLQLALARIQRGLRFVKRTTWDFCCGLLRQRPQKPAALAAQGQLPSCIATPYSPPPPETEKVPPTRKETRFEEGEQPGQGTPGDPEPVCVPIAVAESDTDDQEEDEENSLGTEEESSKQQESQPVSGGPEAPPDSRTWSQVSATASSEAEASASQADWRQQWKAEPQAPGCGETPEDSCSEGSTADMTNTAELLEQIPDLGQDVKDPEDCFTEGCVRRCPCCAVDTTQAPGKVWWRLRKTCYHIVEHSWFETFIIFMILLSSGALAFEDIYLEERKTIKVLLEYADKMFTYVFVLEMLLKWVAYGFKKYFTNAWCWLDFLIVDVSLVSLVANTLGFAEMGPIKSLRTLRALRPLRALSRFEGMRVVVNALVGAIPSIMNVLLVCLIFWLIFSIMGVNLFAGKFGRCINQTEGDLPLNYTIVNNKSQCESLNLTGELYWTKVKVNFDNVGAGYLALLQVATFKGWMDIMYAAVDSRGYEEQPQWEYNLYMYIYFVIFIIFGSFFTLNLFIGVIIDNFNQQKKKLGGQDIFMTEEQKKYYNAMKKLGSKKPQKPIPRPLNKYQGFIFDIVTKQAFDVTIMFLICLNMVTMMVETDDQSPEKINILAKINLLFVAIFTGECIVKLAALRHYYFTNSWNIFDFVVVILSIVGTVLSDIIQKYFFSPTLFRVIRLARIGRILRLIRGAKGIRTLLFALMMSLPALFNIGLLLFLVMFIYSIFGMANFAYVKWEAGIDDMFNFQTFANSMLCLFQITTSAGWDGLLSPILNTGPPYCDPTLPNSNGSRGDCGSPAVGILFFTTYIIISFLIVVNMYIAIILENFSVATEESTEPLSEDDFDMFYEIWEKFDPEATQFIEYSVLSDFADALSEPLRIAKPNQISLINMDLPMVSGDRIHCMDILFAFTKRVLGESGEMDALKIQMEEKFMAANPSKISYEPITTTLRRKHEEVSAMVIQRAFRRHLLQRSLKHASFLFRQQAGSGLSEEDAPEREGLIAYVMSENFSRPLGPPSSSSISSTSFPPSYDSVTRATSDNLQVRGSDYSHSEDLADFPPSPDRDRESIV
Chain of hNav1.7 (Q15858 whole entry): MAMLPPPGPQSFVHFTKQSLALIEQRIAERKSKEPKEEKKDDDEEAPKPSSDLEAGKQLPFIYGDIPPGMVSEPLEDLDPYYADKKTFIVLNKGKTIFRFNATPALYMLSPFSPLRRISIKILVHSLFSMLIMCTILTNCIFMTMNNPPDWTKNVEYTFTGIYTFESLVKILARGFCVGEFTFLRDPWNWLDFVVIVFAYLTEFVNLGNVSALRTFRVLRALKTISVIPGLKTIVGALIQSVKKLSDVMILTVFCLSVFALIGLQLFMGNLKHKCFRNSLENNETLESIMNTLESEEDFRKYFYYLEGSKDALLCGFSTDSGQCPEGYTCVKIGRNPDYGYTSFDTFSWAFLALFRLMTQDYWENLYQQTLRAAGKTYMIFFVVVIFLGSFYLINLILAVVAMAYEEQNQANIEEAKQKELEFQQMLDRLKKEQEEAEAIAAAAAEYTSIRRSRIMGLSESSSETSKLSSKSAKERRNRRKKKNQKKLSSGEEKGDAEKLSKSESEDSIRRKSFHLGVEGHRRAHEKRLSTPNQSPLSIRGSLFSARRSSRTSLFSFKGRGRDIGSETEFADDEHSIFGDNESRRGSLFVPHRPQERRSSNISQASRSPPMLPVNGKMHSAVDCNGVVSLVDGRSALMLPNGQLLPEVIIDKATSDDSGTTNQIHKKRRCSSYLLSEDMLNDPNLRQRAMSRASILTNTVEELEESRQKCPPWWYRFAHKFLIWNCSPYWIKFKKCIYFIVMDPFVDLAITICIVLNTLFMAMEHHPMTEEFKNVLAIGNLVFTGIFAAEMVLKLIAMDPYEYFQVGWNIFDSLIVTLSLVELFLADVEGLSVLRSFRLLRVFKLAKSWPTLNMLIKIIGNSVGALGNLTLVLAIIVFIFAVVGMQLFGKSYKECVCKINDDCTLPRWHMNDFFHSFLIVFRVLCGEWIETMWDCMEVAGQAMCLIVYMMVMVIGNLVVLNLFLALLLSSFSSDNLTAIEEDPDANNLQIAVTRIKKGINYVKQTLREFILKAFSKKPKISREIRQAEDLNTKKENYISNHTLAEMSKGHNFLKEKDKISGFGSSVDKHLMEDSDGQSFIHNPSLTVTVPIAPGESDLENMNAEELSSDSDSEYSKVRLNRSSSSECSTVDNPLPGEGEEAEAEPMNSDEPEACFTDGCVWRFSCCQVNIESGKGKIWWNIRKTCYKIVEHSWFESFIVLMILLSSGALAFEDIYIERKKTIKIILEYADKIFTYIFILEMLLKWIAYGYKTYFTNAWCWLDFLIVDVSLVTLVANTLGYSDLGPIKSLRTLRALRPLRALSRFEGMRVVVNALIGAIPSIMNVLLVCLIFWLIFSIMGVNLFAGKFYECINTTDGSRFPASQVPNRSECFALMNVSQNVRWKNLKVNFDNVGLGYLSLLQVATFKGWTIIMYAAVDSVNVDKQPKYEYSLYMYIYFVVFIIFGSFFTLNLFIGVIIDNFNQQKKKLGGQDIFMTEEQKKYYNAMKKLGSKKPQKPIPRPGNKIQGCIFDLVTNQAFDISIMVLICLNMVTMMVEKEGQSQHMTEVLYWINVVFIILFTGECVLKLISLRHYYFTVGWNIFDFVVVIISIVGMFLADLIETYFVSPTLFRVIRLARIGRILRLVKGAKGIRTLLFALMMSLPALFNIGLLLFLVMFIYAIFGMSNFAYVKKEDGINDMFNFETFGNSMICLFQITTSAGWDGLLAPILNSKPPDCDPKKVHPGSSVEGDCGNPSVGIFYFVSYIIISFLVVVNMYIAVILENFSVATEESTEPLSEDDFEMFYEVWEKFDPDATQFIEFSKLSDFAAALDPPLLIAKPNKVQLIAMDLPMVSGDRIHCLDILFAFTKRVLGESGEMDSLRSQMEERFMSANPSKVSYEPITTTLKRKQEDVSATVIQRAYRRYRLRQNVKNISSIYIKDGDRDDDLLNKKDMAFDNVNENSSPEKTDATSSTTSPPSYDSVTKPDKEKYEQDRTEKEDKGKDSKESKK

For `C#CC[C@@H]1NC(=O)[C@H](CCCNC(=N)N)NC(=O)[C@H](CCCCN)NC(=O)[C@H](CO)NC(=O)[C@H](CC(=O)O)NC(=O)[C@@H]2CSSC[C@@H]3NC(=O)[C@H](CCC(=O)O)NC(=O)[C@H](CC(C)C)NC(=O)CNC(=O)[C@H](CCC(=O)O)NC(=O)[C@H](CSSC[C@H](NC(=O)[C@@H](N)Cc4ccc(O)cc4)C(=O)N[C@@H](CCC(N)=O)C(=O)N[C@@H](CCCCN)C(=O)N[C@@H](Cc4c[nH]c5ccccc45)C(=O)N[C@@H](CCCC)C(=O)N[C@@H](Cc4c[nH]c5ccccc45)C(=O)N[C@@H]([C@@H](C)O)C(=O)N2)NC(=O)[C@H](CSSC[C@@H](C(=O)N[C@@H](CCCNC(=N)N)C(=O)N[C@@H](CCCCN)C(=O)N[C@H](C(=O)N[C@H](C(N)=O)[C@@H](C)CC)[C@@H](C)CC)NC(=O)[C@H](Cc2c[nH]c4ccccc24)NC(=O)[C@H](CC(C)C)NC(=O)[C@H](CCCCN)NC3=O)NC1=O` [compound 345], the IC50 (hNav1.7; tonic block) was 7.16 nM, the IC50 (hNav1.4; tonic block) was 1660 nM and the IC50 (hNav1.5; tonic block) was 4570 nM.

`C#CC[C@@H]1NC(=O)[C@@H]2CSSC[C@H](NC(=O)[C@@H](N)Cc3ccc(O)cc3)C(=O)N[C@@H](CCC(N)=O)C(=O)N[C@@H](CCCCN)C(=O)N[C@@H](Cc3c[nH]c4ccccc34)C(=O)N[C@@H](CCCC)C(=O)N[C@@H](Cc3c[nH]c4ccccc34)C(=O)N[C@@H]([C@@H](C)O)C(=O)N[C@H]3CSSC[C@H](NC(=O)[C@H](CCC(=O)O)NC(=O)[C@H](CC(C)C)NC(=O)CNC1=O)C(=O)N[C@@H](CCCCN)C(=O)N[C@@H](CC(C)C)C(=O)N[C@@H](Cc1c[nH]c4ccccc14)C(=O)N[C@H](C(=O)N[C@@H](CCCNC(=N)N)C(=O)N[C@@H](CCCCN)C(=O)N[C@H](C(=O)N[C@H](C(N)=O)[C@@H](C)CC)[C@@H](C)CC)CSSC[C@H](NC(=O)[C@H](C)NC(=O)[C@H](CCCNC(=N)N)NC(=O)[C@H](CCCCN)NC(=O)[C@H](CO)NC(=O)[C@H](CC(=O)O)NC3=O)C(=O)N2` [compound 346] showed an IC50 (hNav1.7; tonic block) of 9.95 nM, an IC50 (hNav1.4; tonic block) of 291 nM and a Nav1.4/Nav1.7 (hNav1.4; ratio of PX tonic IC50 values) of 29. For the same molecule, the IC50 (hNav1.5; tonic block) was 1020 nM.

Molecule `CCCC[C@@H]1NC(=O)[C@H](Cc2c[nH]c3ccccc23)NC(=O)[C@H](CCCCN)NC(=O)[C@H](CCC(N)=O)NC(=O)[C@@H](NC(=O)[C@H](Cc2ccc(O)cc2)NC(=O)[C@@H](N)CCCC)CSSC[C@@H]2NC(=O)[C@@H]3CSSC[C@@H](C(=O)N[C@@H](CCCNC(=N)N)C(=O)N[C@@H](CCCCN)C(=O)N[C@H](C(=O)N[C@H](C(N)=O)[C@@H](C)CC)[C@@H](C)CC)NC(=O)[C@H](Cc4c[nH]c5ccccc45)NC(=O)[C@H](CC(C)C)NC(=O)[C@H](CCCCN)NC(=O)[C@H](CSSC[C@H](NC(=O)[C@H]([C@@H](C)O)NC(=O)[C@H](Cc4c[nH]c5ccccc45)NC1=O)C(=O)N[C@@H](CC(=O)O)C(=O)N[C@@H](CO)C(=O)N[C@@H](CCCCN)C(=O)N[C@@H](CCCNC(=N)N)C(=O)N[C@@H](C)C(=O)N3)NC(=O)[C@H](CCCNC(=N)N)NC(=O)[C@H](CC(C)C)NC(=O)CNC(=O)[C@H](CCC(=O)O)NC2=O` [compound 370] has an IC50 (hNav1.7; [1]) of 0.223 nM, an IC50 (hNav1.4; [1]) of 4.6 nM and a Nav1.4/Nav1.7 (hNav1.4; ratio of PX IC50 values) of 21. For the same molecule, the IC50 (hNav1.5; [1]) was 830 nM.

For `CCCC[C@@H]1NC(=O)[C@H](Cc2c[nH]c3ccccc23)NC(=O)[C@H](CCCCN)NC(=O)[C@H](CCC(N)=O)NC(=O)[C@@H](NC(=O)[C@H](Cc2ccc(O)cc2)NC(=O)[C@@H](C)N)CSSC[C@@H]2NC(=O)[C@@H]3CSSC[C@@H](C(=O)N[C@@H](CCCNC(=N)N)C(=O)N[C@@H](CCCCN)C(=O)N[C@H](C(=O)N[C@H](C(N)=O)[C@@H](C)CC)[C@@H](C)CC)NC(=O)[C@H](Cc4c[nH]c5ccccc45)NC(=O)[C@H](CC(C)C)NC(=O)[C@H](CCCCN)NC(=O)[C@H](CSSC[C@H](NC(=O)[C@H]([C@@H](C)O)NC(=O)[C@H](Cc4c[nH]c5ccccc45)NC1=O)C(=O)N[C@@H](CC(=O)O)C(=O)N[C@@H](CO)C(=O)N[C@@H](CCCCN)C(=O)N[C@@H](CCCNC(=N)N)C(=O)N[C@@H](C)C(=O)N3)NC(=O)[C@H](CCCNC(=N)N)NC(=O)[C@H](CC(C)C)NC(=O)CNC(=O)[C@H](CCC(=O)O)NC2=O` [compound 372], the IC50 (hNav1.7; [1]) was 0.957 nM, the IC50 (hNav1.4; [1]) was 5.1 nM and the Nav1.4/Nav1.7 (hNav1.4; ratio of PX IC50 values) was 5. It also gave an IC50 (hNav1.5; [1]) of 730 nM.

Molecule `CCCC[C@@H]1NC(=O)[C@H](Cc2c[nH]c3ccccc23)NC(=O)[C@H](CCCCN)NC(=O)[C@H](CCC(N)=O)NC(=O)[C@@H](NC(=O)[C@H](Cc2ccc(O)cc2)NC(=O)[C@H](N)Cc2ccccc2)CSSC[C@@H]2NC(=O)[C@@H]3CSSC[C@@H](C(=O)N[C@@H](CCCNC(=N)N)C(=O)N[C@@H](CCCCN)C(=O)N[C@H](C(=O)N[C@H](C(N)=O)[C@@H](C)CC)[C@@H](C)CC)NC(=O)[C@H](Cc4c[nH]c5ccccc45)NC(=O)[C@H](CC(C)C)NC(=O)[C@H](CCCCN)NC(=O)[C@H](CSSC[C@H](NC(=O)[C@H]([C@@H](C)O)NC(=O)[C@H](Cc4c[nH]c5ccccc45)NC1=O)C(=O)N[C@@H](CC(=O)O)C(=O)N[C@@H](CO)C(=O)N[C@@H](CCCCN)C(=O)N[C@@H](CCCNC(=N)N)C(=O)N[C@@H](C)C(=O)N3)NC(=O)[C@H](CCCNC(=N)N)NC(=O)[C@H](CC(C)C)NC(=O)CNC(=O)[C@H](CCC(=O)O)NC2=O` [compound 374] has an IC50 (hNav1.7; [1]) of 0.351 nM, an IC50 (hNav1.4; [1]) of 6.8 nM and a Nav1.4/Nav1.7 (hNav1.4; ratio of PX IC50 values) of 19. The IC50 (hNav1.5; [1]) was 620 nM.

`CCCC[C@@H]1NC(=O)[C@H](Cc2c[nH]c3ccccc23)NC(=O)[C@H](CCCCN)NC(=O)[C@H](CCC(N)=O)NC(=O)[C@@H](NC(=O)[C@H](Cc2ccc(O)cc2)NC(=O)CCN)CSSC[C@@H]2NC(=O)[C@@H]3CSSC[C@@H](C(=O)N[C@@H](CCCNC(=N)N)C(=O)N[C@@H](CCCCN)C(=O)N[C@H](C(=O)N[C@H](C(N)=O)[C@@H](C)CC)[C@@H](C)CC)NC(=O)[C@H](Cc4c[nH]c5ccccc45)NC(=O)[C@H](CC(C)C)NC(=O)[C@H](CCCCN)NC(=O)[C@H](CSSC[C@H](NC(=O)[C@H]([C@@H](C)O)NC(=O)[C@H](Cc4c[nH]c5ccccc45)NC1=O)C(=O)N[C@@H](CC(=O)O)C(=O)N[C@@H](CO)C(=O)N[C@@H](CCCCN)C(=O)N[C@@H](CCCNC(=N)N)C(=O)N[C@@H](C)C(=O)N3)NC(=O)[C@H](CCCNC(=N)N)NC(=O)[C@H](CC(C)C)NC(=O)CNC(=O)[C@H](CCC(=O)O)NC2=O` [compound 376] gave an IC50 (hNav1.7; [1]) of 0.951 nM, an IC50 (hNav1.4; [1]) of 3.2 nM and a Nav1.4/Nav1.7 (hNav1.4; ratio of PX IC50 values) of 3. It also gave an IC50 (hNav1.5; [1]) of 700 nM.

Molecule `CCCC[C@@H]1NC(=O)[C@H](Cc2c[nH]c3ccccc23)NC(=O)[C@H](CCCCN)NC(=O)[C@H](CCC(N)=O)NC(=O)[C@@H](NC(=O)[C@H](Cc2ccc(O)cc2)NC(=O)[C@@H](N)CCC(C)C)CSSC[C@@H]2NC(=O)[C@@H]3CSSC[C@@H](C(=O)N[C@@H](CCCNC(=N)N)C(=O)N[C@@H](CCCCN)C(=O)N[C@H](C(=O)N[C@H](C(N)=O)[C@@H](C)CC)[C@@H](C)CC)NC(=O)[C@H](Cc4c[nH]c5ccccc45)NC(=O)[C@H](CC(C)C)NC(=O)[C@H](CCCCN)NC(=O)[C@H](CSSC[C@H](NC(=O)[C@H]([C@@H](C)O)NC(=O)[C@H](Cc4c[nH]c5ccccc45)NC1=O)C(=O)N[C@@H](CC(=O)O)C(=O)N[C@@H](CO)C(=O)N[C@@H](CCCCN)C(=O)N[C@@H](CCCNC(=N)N)C(=O)N[C@@H](C)C(=O)N3)NC(=O)[C@H](CCCNC(=N)N)NC(=O)[C@H](CC(C)C)NC(=O)CNC(=O)[C@H](CCC(=O)O)NC2=O` [compound 377] has an IC50 (hNav1.7; [1]) of 0.676 nM, an IC50 (hNav1.4; [1]) of 8.5 nM and a Nav1.4/Nav1.7 (hNav1.4; ratio of PX IC50 values) of 13. For the same molecule, the IC50 (hNav1.5; [1]) was 420 nM.

`CCCC[C@@H]1NC(=O)[C@H](Cc2c[nH]c3ccccc23)NC(=O)[C@H](CCCCN)NC(=O)[C@H](CCC(N)=O)NC(=O)[C@@H](NC(=O)[C@H](Cc2ccc(O)cc2)NC(=O)[C@@H](N)CCc2ccccc2)CSSC[C@@H]2NC(=O)[C@@H]3CSSC[C@@H](C(=O)N[C@@H](CCCNC(=N)N)C(=O)N[C@@H](CCCCN)C(=O)N[C@H](C(=O)N[C@H](C(N)=O)[C@@H](C)CC)[C@@H](C)CC)NC(=O)[C@H](Cc4c[nH]c5ccccc45)NC(=O)[C@H](CC(C)C)NC(=O)[C@H](CCCCN)NC(=O)[C@H](CSSC[C@H](NC(=O)[C@H]([C@@H](C)O)NC(=O)[C@H](Cc4c[nH]c5ccccc45)NC1=O)C(=O)N[C@@H](CC(=O)O)C(=O)N[C@@H](CO)C(=O)N[C@@H](CCCCN)C(=O)N[C@@H](CCCNC(=N)N)C(=O)N[C@@H](C)C(=O)N3)NC(=O)[C@H](CCCNC(=N)N)NC(=O)[C@H](CC(C)C)NC(=O)CNC(=O)[C@H](CCC(=O)O)NC2=O` [compound 379] showed an IC50 (hNav1.7; [1]) of 0.476 nM, an IC50 (hNav1.4; [1]) of 4.8 nM and a Nav1.4/Nav1.7 (hNav1.4; ratio of PX IC50 values) of 10. The IC50 (hNav1.5; [1]) was 440 nM.

With `C#CC[C@H](N)C(=O)NCCOCCOCCOCCOCCC(=O)NCCCC[C@@H]1NC(=O)[C@@H]2CSSC[C@H](NC(=O)[C@H](Cc3ccc(O)cc3)NC(=O)[C@@H](N)CC#N)C(=O)N[C@@H](CCC(N)=O)C(=O)N[C@@H](CCCCN)C(=O)N[C@@H](Cc3c[nH]c4ccccc34)C(=O)N[C@@H](CCCC)C(=O)N[C@@H](Cc3c[nH]c4ccccc34)C(=O)N[C@@H]([C@@H](C)O)C(=O)N[C@H]3CSSC[C@H](NC(=O)[C@H](CCCNC(=N)N)NC(=O)[C@H](CC(C)C)NC(=O)CNC1=O)C(=O)N[C@@H](CCCCN)C(=O)N[C@@H](CC(C)C)C(=O)N[C@@H](Cc1c[nH]c4ccccc14)C(=O)N[C@H](C(=O)N[C@@H](CCCNC(=N)N)C(=O)N[C@@H](CCCCN)C(=O)N[C@H](C(=O)N[C@H](C(N)=O)[C@@H](C)CC)[C@@H](C)CC)CSSC[C@H](NC(=O)[C@H](C)NC(=O)[C@H](CCCNC(=N)N)NC(=O)[C@H](CCCCN)NC(=O)[C@H](CO)NC(=O)[C@H](CC(=O)O)NC3=O)C(=O)N2` [compound 385] the IC50 (hNav1.7; tonic block) was 3.64 nM, the Nav1.4/Nav1.7 (hNav1.4; ratio of PX tonic IC50 values) was 0 and the Nav1.5/Nav1.7 (hNav1.5; ratio of PX tonic IC50 values) was 0.

Reference: patent US9636418B2 (priority 2013, dated 2017)
